Test results reported in publication PMC5216765, “Tumor suppressor berberine binds VASP to inhibit cell migration in basal-like breast cancer” (Oncotarget, 2016).

Target: T1, VASP (vasodilator-stimulated phosphoprotein) (Homo sapiens, UniProt P50552)
T1 construct: recombinant VASP expressed in E. coli Rosetta (IPTG, 18 °C), as previously described
Assay: intrinsic tryptophan fluorescence quenching titration (excitation […] nm)
Format: binding
Settings: 25 °C; 0.4 μM VASP; berberine 0 to 3.4 μM

T1 sequence (P50552 2-380): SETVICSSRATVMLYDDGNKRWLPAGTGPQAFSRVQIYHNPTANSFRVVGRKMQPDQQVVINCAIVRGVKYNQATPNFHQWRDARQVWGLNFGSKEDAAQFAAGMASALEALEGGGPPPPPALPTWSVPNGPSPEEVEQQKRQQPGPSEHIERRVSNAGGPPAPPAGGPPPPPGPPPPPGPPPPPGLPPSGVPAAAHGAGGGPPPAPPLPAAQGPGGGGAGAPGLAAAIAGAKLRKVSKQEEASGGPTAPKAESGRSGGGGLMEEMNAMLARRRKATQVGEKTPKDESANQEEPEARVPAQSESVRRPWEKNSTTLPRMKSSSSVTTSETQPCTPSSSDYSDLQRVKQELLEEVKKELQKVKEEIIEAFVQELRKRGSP

COc1ccc2cc3[n+](cc2c1OC)CCc1cc2c(cc1-3)OCO2 [berberine]
Kd: 100 nM
